Results from PMC4700278, “Molecular and Biochemical Analysis of the Estrogenic and Proliferative Properties of Vitamin E Compounds” (Frontiers in Oncology, 2016).

Tests used:
[1] = test system: ER-dependent transcription in MELN cells; assay: ERE-luciferase reporter assay in MELN cells (MCF-7 stably transfected with ERE-β-globin-tk-Luc); type: cell-based, human; details: for stimulation of luciferase expression (ER-dependent transcription): 500 μM (tocols 10 to 500 μM)
From the text: MELN cells were established by transfecting ER(+) MCF-7 cells with the ERE-β-globin-tk-Luc-SV-Neo plasmid ([36]). HELN cells were generated by transfection of ER(−) HeLa cells with this plasmid. The HELN-ERα, HELN-ERβ, HELN-ΔAB-ERα, and HELN-ΔAB-ERβ cell lines then underwent a second transfection with the corresponding pSG5-puro plasmids (pSG5-ERα-puro, pSG5-ERβ-puro, pSG5-ΔAB-ERα-puro, and pSG5-ΔAB-ERβ-puro, respectively) and expressed wild-type or mutated ERα or ERβ ([39], [40]). […] Comparison of the activities toward hERα and hERβ with the truncated ΔAB-ERα and ΔAB-ERβ provides a powerful model to identify partial ER agonists (requiring ligand-independent AF-1 to induce maximal ER activation). […] Cells were grown routinely in DMEM growth medium supplemented with 5% FBS (Gibco BRL, Life Technologies, Cergy pontoise, France). Cells were incubated at 37°C in a humidified 5% CO2 incubator. For experiments, cells were grown for 5 days in phenol red-free medium, containing 6% dextran-coated charcoal-treated FCS (DCC-FCS) with penicillin–streptomycin. Medium was changed after 2 days. On day 5, cells were treated or not with the compounds, which were dissolved in ethanol. For each condition, 15 × 10^3 cells were seeded per well in 12-well plates and treated, as described above, for 8 h in a final volume of 0.5 ml. At the end of the treatment, cells were washed with PBS and lysed in 150 μl lysis buffer (Promega, Charbonnières, France). Luciferase activity was measured using the luciferase assay reagent (Promega), according to the manufacturer’s instructions. Protein concentrations were measured using the Bradford technique ([41]) to normalize the luciferase activity data. For each condition, average luciferase activity was calculated from the data of three independent wells.
Figure 3 Measurement of estrogenicity of tocols in vitro. (A) Dose–response curve of the effect of tocols on MCF-7 cells stably transfected with the ERE-β-globin-tk-Luc plasmid (MELN cells). […] Data shown are the mean values ± SEM from three independent experiments. […] MCF-7 extracts were analyzed for the presence of ERα by western blotting using GAPDH as a control. […] The western blot shown is representative of three independent experiments. The ratio of ERα to GAPDH levels in each experiment was determined densitometrically and normalized to control value (taken to be 1). (D) Effect of δ-tocols on estrogen response element-dependent luciferase activity in HELN cells, which are HELA cells transfected with either fully functional ERα or ERβ or their mutated versions containing a deletion the AB domain (ΔAB). […] Data shown are the mean values ± SEM from three independent experiments. […] Cells were treated with 500 μM δ-tocols in the presence or in the absence of ICI. The relative expression of TGFα, PR, and Ps2 (TFF1) after 16 h was analyzed by quantitative RT-PCR. Data shown are the mean values ± SEM from three independent experiments.

[2] = test system: MCF-7 (ER(+)) cells; assay: Cell proliferation assay (sulforhodamine B); type: cell-based, human
Procedure: (§1) MCF-7 (ER(+)), T47D (ER(+)), and MDA-MB-231 (ER(−)) cell lines were from ATCC. Cell lines were maintained at 37°C in a humidified incubator in a 5% CO2-enriched atmosphere in T-75 flasks. […] Cells were grown for 24 h before treatment in phenol red-free medium containing 5% DCC-FCS. Cells were seeded into 96-well plates at 2000 cells/well. Treatment media (150 μl/well) was added on the following day and replaced at 48-h intervals until the end of the experiment. Cell density was measured via the sulforhodamine B method ([43]) after 0, 2, 4, 6, and 8 days. The absorbance of SRB was measured directly at 490 nm in the 96-well plates using a multiskan® multisoft reader from Labsystem.

[3] = test system: T47D (ER(+)) cells; assay: Cell proliferation assay (sulforhodamine B); type: cell-based, human
Procedure: as §1

[4] = test system: MDA-MB-231 (ER(−)) cells; assay: Cell proliferation assay (sulforhodamine B); type: cell-based, human; details: 500 μM δ-TP or δ-TT; 30 μM lovastatin; 6-day period
Procedure: MCF-7 (ER(+)), T47D (ER(+)), and MDA-MB-231 (ER(−)) cell lines were from ATCC. Cell lines were maintained at 37°C in a humidified incubator in a 5% CO2-enriched atmosphere in T-75 flasks. MCF-7, T47D, and MDA-MB-231 cells were grown routinely in phenol red RPMI 1640 medium supplemented with 5% FBS (Gibco BRL, Life Technologies, Cergy Pontoise, France) and with penicillin–streptomycin. Cells were grown for 24 h before treatment in phenol red-free medium containing 5% DCC-FCS. Cells were seeded into 96-well plates at 2000 cells/well. Treatment media (150 μl/well) was added on the following day and replaced at 48-h intervals until the end of the experiment. Cell density was measured via the sulforhodamine B method ([43]) after 0, 2, 4, 6, and 8 days. The absorbance of SRB was measured directly at 490 nm in the 96-well plates using a multiskan® multisoft reader from Labsystem.
Figure 4 Effect of tocol on ER(+) and ER(−) BC cell proliferation and HMG-CoA reductase activity. (A) Effect of δ-tocols on estrogen and non-estrogen-regulated growth of MCF-7, T47D, and MDA-MB-231 cells. […] Cells were also treated with 30 μM lovastatin (Lova) in the presence or absence of 5 mM M, as described in Section “Materials and Methods.” Values are shown as means and vertical bars represent SEM. The data were analyzed by two-way ANOVA, followed by Bonferroni post hoc test. ***P < 0.001, **P < 0.01, and *P < 0.05 in comparison with control or bare-linked specific control. Ns: not significant. (B) Effect of δ-TT on hydroxymethylglutaryl coenzyme A reductase (HMGR) activity in MCF-7, T47D, and MDA-MB-231 cells. […] Data shown are the mean values ± SEM from three independent experiments performed in triplicate.

[5] = biological target: T1, ERα (Homo sapiens, UniProt P03372); assay: Estrogen receptor-binding assay, competition with [3H]-17β-estradiol; design: expressed in transfected cells; host or cells: Cos-7; details: extracts of cos-7 cells expressing human ERα; 2 nM [3H]-E2; tocols 1 μM to 1 mM; N.M. = not measurable
T1 sequence (P03372 1-595): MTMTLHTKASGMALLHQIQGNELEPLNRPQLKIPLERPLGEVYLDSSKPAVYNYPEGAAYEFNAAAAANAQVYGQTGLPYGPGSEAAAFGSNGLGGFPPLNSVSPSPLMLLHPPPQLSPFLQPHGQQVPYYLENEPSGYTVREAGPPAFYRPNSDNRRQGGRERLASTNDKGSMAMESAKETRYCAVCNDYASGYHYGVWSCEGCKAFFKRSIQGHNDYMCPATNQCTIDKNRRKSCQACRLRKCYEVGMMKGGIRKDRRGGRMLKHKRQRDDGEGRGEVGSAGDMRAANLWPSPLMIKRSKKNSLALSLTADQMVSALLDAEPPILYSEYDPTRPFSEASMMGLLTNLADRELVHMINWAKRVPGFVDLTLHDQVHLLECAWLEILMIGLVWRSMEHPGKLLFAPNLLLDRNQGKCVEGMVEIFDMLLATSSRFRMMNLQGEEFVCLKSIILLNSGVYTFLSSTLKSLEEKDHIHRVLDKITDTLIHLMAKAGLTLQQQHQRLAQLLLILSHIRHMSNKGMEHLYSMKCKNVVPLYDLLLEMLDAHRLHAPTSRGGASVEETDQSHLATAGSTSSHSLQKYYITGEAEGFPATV

[6] = biological target: ERβ (Homo sapiens, UniProt Q92731); assay: as above; design: expressed in transfected cells; host or cells: Cos-7; details: extracts of cos-7 cells expressing human ERβ; 2 nM [3H]-E2; tocols 1 μM to 1 mM; N.M. = not measurable
Chain of ERβ (Q92731 whole entry): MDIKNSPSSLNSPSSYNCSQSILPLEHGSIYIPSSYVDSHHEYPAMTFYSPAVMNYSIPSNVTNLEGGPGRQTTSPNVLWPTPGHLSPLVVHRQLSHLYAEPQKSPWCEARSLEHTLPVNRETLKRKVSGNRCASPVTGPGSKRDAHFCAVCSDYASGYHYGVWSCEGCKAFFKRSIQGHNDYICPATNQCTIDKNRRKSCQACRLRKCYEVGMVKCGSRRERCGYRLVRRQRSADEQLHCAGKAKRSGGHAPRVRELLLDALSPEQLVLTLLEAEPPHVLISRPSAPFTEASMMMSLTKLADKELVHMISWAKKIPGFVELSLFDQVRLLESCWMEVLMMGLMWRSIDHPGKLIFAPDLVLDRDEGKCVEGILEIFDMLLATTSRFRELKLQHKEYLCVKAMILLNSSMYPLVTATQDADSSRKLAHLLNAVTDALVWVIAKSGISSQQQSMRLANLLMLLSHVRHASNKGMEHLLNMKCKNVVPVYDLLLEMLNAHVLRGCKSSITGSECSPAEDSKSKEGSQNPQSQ

[7] = 500 μM δ-TP or δ-TT, 30 μM lovastatin, 6-day period

Row | SMILES | stimulation of luciferase expression (ER-dependent transcription) [1] | IC50 [5] | IC50 [6] | further results
1 | Cc1cc(C(C)(C)C)c(O)c(C(C)(C)C)c1 [BHT, butylated hydroxytoluene, reference compound] | did not stimulate the expression of luciferase |  |  | 
2 | CCCCN(C)C(=O)CCCCCCCCCCC1Cc2cc(O)ccc2C2CC[C@@]3(C)C(CC[C@@H]3O)C12 (stereo partly shown) [ICI 164,384, reference compound] |  |  |  | blockade of tocol-induced ER-dependent transcriptional activity ([1]; 1 μM ICI 164,384 with 500 μM δ-TP or δ-TT): blocked; blockade of δ-TP- and E2-induced stimulation of MCF-7 proliferation ([2]; 1 μM ICI 164,384): blocked; blockade of δ-TP- and E2-induced stimulation of T47D proliferation ([3]; 1 μM ICI 164,384): blocked
3 | CC(C)(Sc1cc(C(C)(C)C)c(O)c(C(C)(C)C)c1)Sc1cc(C(C)(C)C)c(O)c(C(C)(C)C)c1 [Probucol, probucol, reference compound] | did not stimulate the expression of luciferase |  |  | 
4 | CC[C@H](C)C(=O)O[C@H]1C[C@@H](C)C=C2C=C[C@H](C)[C@H](CC[C@@H]3C[C@@H](O)CC(=O)O3)[C@H]21 [lovastatin, reference compound] |  |  |  | effect on MCF-7 cell proliferation [2, 7]: inhibition of cell proliferation; effect on MDA-MB-231 cell proliferation [4]: inhibition of cell proliferation; effect on T47D cell proliferation [3, 7]: inhibition of cell proliferation
5 | Cc1c(C)c2c(c(C)c1O)CC[C@@](C)(CCC[C@H](C)CCC[C@H](C)CCCC(C)C)O2 [α-TP, α-tocopherol] |  | 453 ± 30 µM | 431 ± 21 µM | 
6 | CC(C)=CCC/C(C)=C/CC/C(C)=C/CC[C@]1(C)CCc2c(C)c(O)c(C)c(C)c2O1 [α-TT, α-tocotrienol] |  | 412 ± 22 µM | 388 ± 32 µM | 
7 | Cc1c(O)cc2c(c1C)O[C@](C)(CCC[C@H](C)CCC[C@H](C)CCCC(C)C)CC2 [γ-TP, γ-tocopherol] |  | 227 ± 28 µM | 215 ± 16 µM | 
8 | CC(C)=CCC/C(C)=C/CC/C(C)=C/CC[C@]1(C)CCc2cc(O)c(C)c(C)c2O1 [γ-TT, γ-tocotrienol] |  | 203 ± 25 µM | 205 ± 18 µM | 
9 | CC1=CC(=O)C=C(CC[C@](C)(O)CCC[C@H](C)CCC[C@H](C)CCCC(C)C)C1=O [δ-TPQuin, δ-tocopherylquinone] | did not stimulate the expression of luciferase |  |  | ERα (IC50) [5]: did not bind and N.M.; ERβ (IC50) [6]: did not bind and N.M.
